Laboratory results from patent US20240207455A1, “COMBINATION COMPRISING A NEUROTENSIN RECEPTOR BINDING COMPOUND AND NAPOX” (Fusion Pharmaceuticals Inc., priority 2021, published 2024).

Test system: subcutaneous AsPC1 tumors
Assay: Efficacy study in mice bearing subcutaneous AsPC1 tumors (tumor volume)
Assay type: in vivo, SWISS Nude mice
Conditions: ^177Lu-IPN01087 20 MBq/mouse IV weekly x3; NAPOX: oxaliplatin 3.75 mg/kg, liposomal irinotecan 16 mg/kg, folinic acid 75 mg/kg, 5-FU 37.5 mg/kg weekly x2; Groups 2, 3, 5 vs vehicles
Experimental: The AsPC1 cell line was isolated from a metastatic site (ascites) from a patient (Chen WH. et al., In Vitro. 1982 January; 18(1):24-34).
Tumor cells were grown as monolayer at 37° C. in a humidified atmosphere (5% CO2, 95% air). The culture medium is RPMI 1640 containing glutamax supplemented with 10% heat inactivated fetal bovine serum, sodium pyruvate and hepes. For experimental use, tumor cells were detached from the culture flask using accutase and neutralized by addition of complete culture medium. The cells were counted and their viability was assessed by 0.25% trypan blue exclusion assay. Two frozen pellets of AsPC-1 tumor cells were prepared: one frozen cell pellet prepared during the in-vitro cell culture, and one frozen cell pellet prepared using the cell suspension used for tumor induction in mice.
One hundred fifty (150) healthy female SWISS Nude mice (Crl:NU(Ico)-Foxn1 nu), 6-7 weeks old at reception, were obtained from Charles River.
Tumors were induced by subcutaneous injection of ten million (10^7) AsPC-1 cells in 200 μL of RPMI 1640 medium containing matrigel (50:50, v:v, ref: 356237, BD Biosciences, France) into the right flank (in the axis of the heart) of 150 female animals. […]
The treatment efficacy was assessed in terms of the effects of the treatments on the tumor volumes of treated animals relative to control animals. […]

^177Lu-zalsenertant tetraxetan [^177Lu-IPN01087]
AsPC-1 tumor growth (tumor volume), FIG. 2: produced an antitumor effect when compared to the vehicles
